Measured values published in US20230339981A1, “KRAS G12D MODULATING COMPOUNDS” (priority 2022, published 2023).

Experiments:
GDP-loaded KRAS G12D = GDP-loaded KRAS G12D (Homo sapiens (Human), UniProt P01116, G12D); test: KRAS G12D (GDP) biochemical assay (TR-FRET probe displacement); format: binding; conditions: 2 hours
Method in brief: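 Compound pre-incubated 30 min with GDP-loaded KRAS G12D in 50 mM Hepes pH 7.4, 150 mM NaCl, 5 mM MgCl2, 0.005% Tween-20, then Eu-streptavidin and TR-FRET probe added. After 2 h at room temperature, TR-FRET ratio read; IC50 is 50% ratio decrease, sigmoidal fit.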

GP2D (KRAS G12D) cells = test: 2D cell viability assay (CellTiter-Glo); format: cell-based; conditions: GP2d, 96 h, 4 days
Method in brief: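 GP2D (KRAS G12D) cells, 1000/well in RPMI + 10% FBS, were plated onto compound (1:3 DMSO series) and grown 4 days at 37 °C, 5% CO2 in 2D. CellTiter-Glo luminescence was read; EC50 is the concentration giving 50% signal decrease, from sigmoidal fit.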

AsPC-1 (KRAS G12D) cells = test: 3D cell viability assay (spheroids, CellTiter-Glo 3D); format: cell-based; conditions: Homo sapiens, ASPC1, 96 h, AsPC-1 cells, 3D spheroids, 4 days
Method: Example C. 3D Cell Viability Assay
Compounds were tested in a 384-well format for their ability to inhibit the viability of AsPC-1 (KRAS G12D) cells in 3D assays. On day 0, 1000 cells/well (80 μL volume per well) in DMEM with 10% FBS, and Penicillin-Streptomycin-Glutamine were plated in 384-well Ultra-Low Attachment Spheroid Microplates (Corning, Catalog #3830) on the BioTEK EL406 liquid dispenser with a 5 μL dispensing cassette (BioTek 7170011). The plates were incubated at 37° C., 5% CO2 for 3 days to allow spheroid formation. On day 3, compounds were serially diluted (1:3) in DMSO. The Biomek FX was used to add 400 nL of test molecule per well. The plates were incubated at 37° C., 5% CO2 for 4 days before addition of CellTiter-Glo 3D (Promega, Catalog #9683) reagent and measurement of luminescence signal. EC50 values were defined as the compound concentration that causes a 50% decrease in luminescence signal and were calculated using a sigmoidal dose-response model to generate curve fits.

Chain of GDP-loaded KRAS G12D (P01116-2 other isoform, or with tags, fused parts or gaps G12D): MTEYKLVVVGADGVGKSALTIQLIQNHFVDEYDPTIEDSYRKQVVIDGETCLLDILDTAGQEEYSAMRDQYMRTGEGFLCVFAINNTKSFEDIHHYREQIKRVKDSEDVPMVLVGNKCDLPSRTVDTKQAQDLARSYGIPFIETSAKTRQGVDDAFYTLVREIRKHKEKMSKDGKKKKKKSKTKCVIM

Q: For C#Cc1c(F)ccc2cccc(-c3nc4c5c(nc(OC[C@@]67CCCN6C[C@H](F)C7)nc5c3F)N3C[C@H]5CC[C@H](N5)[C@@H]3CC4)c12 [Example 170, (5aS,6S,9R)-2-(8-ethynyl-7-fluoronaphthalen-1-yl)-1-fluoro-12-(((2R,7aS)-2-fluorotetrahydro-1H-pyrrolizin-7a(5H)-yl)methoxy)-4,5,5a,6,7,8,9,10-octahydro-3,10a,11,13,14-pentaaza-6,9-methanonaphtho[1,8-ab]heptalene], which IC50 (GDP-loaded KRAS G12D) is on record?
A: 18.1 nM

Q: What about the EC50 (GP2D (KRAS G12D) cells) of the same compound?
A: 100 nM

Q: And the EC50 (AsPC-1 (KRAS G12D) cells)?
A: > 1000 nM

Q: Which results are given for CCc1c(F)ccc2cc(O)cc(-c3cc4c5c(nc(OC[C@@]67CCCN6C[C@H](F)C7)nc5c3F)N3C[C@H]5CC[C@H](N5)[C@H]3CC4)c12 [Example 128, 5-ethyl-6-fluoro-4-((1S,4R,14aR)-10-fluoro-8-(((2R,7aS)-2-fluorotetrahydro-1H-pyrrolizin-7a(5H)-yl)methoxy)-1,2,3,4,5,13,14,14a-octahydro-1,4-epiminoazepino[1′,2′:1,7]azepino[2,3,4-de]quinazolin-11-yl)naphthalen-2-ol]?
A: IC50 (GDP-loaded KRAS G12D): 0.2 nM; EC50 (GP2D (KRAS G12D) cells): 4.1 nM; EC50 (AsPC-1 (KRAS G12D) cells): 59 nM

Q: C#Cc1c(F)ccc2cc(O)cc(-c3nc4c5c(nc(OC[C@@]67CCCN6C[C@H](F)C7)nc5c3F)N3C[C@@]5(C)CC[C@H](N5)[C@H]3CC4)c12 [Example 190, 5-ethynyl-6-fluoro-4-((5aR,6S,9R)-1-fluoro-12-(((2R,7aS)-2-fluorotetrahydro-1H-pyrrolizin-7a(5H)-yl)methoxy)-9-methyl-4,5,5a,6,7,8,9,10-octahydro-3,10a,11,13,14-pentaaza-6,9-methanonaphtho[1,8-ab]heptalen-2-yl)naphthalen-2-ol] was tested. Which IC50 (GDP-loaded KRAS G12D) did it give?
A: 0.1 nM

Q: What about the EC50 (GP2D (KRAS G12D) cells) of the same compound?
A: 1.5 nM

Q: What about the EC50 (AsPC-1 (KRAS G12D) cells) of the same compound?
A: 7.9 nM

Q: What does the source list for C#Cc1c(F)ccc2cc(O)cc(-c3nc4c5c(nc(OCC6(CN7CCC(COC(C(F)(F)F)(C(F)(F)F)C(F)(F)F)CC7)CC6)nc5c3F)N3C[C@H]5CC[C@H](N5)[C@H]3CC4)c12 [Example 143, 5-ethynyl-6-fluoro-4-((5aR,6S,9R)-1-fluoro-12-((1-((4-(((1,1,1,3,3,3-hexafluoro-2-(trifluoromethyl)propan-2-yl)oxy)methyl)piperidin-1-yl)methyl)cyclopropyl)methoxy)-4,5,5a,6,7,8,9,10-octahydro-3,10a,11,13,14-pentaaza-6,9-methanonaphtho[1,8-ab]heptalen-2-yl)naphthalen-2-ol]?
A: IC50 (GDP-loaded KRAS G12D): 1.9 nM; EC50 (GP2D (KRAS G12D) cells): 3.1 nM; EC50 (AsPC-1 (KRAS G12D) cells): 110 nM

Q: Which results are given for Oc1cc(-c2nc3c4c(nc(OC[C@@]56CCCN5C[C@H](F)C6)nc4c2F)N2C[C@H]4CC[C@H](N4)[C@H]2CC3)c2c(OC(F)(F)F)c(F)ccc2c1 [Example 41, 6-fluoro-4-((5aR,6S,9R)-1-fluoro-12-(((2R,7aS)-2-fluorotetrahydro-1H-pyrrolizin-7a(5H)-yl)methoxy)-4,5,5a,6,7,8,9,10-octahydro-3,10a,11,13,14-pentaaza-6,9-methanonaphtho[1,8-ab]heptalen-2-yl)-5-(trifluoromethoxy)naphthalen-2-ol]?
A: IC50 (GDP-loaded KRAS G12D): 0.6 nM; EC50 (GP2D (KRAS G12D) cells): 3 nM; EC50 (AsPC-1 (KRAS G12D) cells): 8 nM

Q: For C#Cc1c(F)ccc2cccc(-c3nc4c5c(nc(OC[C@@]67CCCN6C[C@H](F)C7)nc5c3F)N3C[C@H]5CC[C@H](N5)[C@H]3C[C@@H]4F)c12 [Example 172, (4S,5aR,6S,9R)-2-(8-ethynyl-7-fluoronaphthalen-1-yl)-1,4-difluoro-12-(((2R,7aS)-2-fluorotetrahydro-1H-pyrrolizin-7a(5H)-yl)methoxy)-4,5,5a,6,7,8,9,10-octahydro-3,10a,11,13,14-pentaaza-6,9-methanonaphtho[1,8-ab]heptalene], which IC50 (GDP-loaded KRAS G12D) is on record?
A: 3.5 nM

Q: And the EC50 (GP2D (KRAS G12D) cells)?
A: 65.3 nM

Q: And the EC50 (AsPC-1 (KRAS G12D) cells)?
A: 480 nM

Q: C#Cc1c(F)ccc2cccc(-c3nc4c5c(nc(OC[C@@]67CCCN6[C@H](COC(C)(C)C)CC7)nc5c3F)N3C[C@H]5CC[C@H](N5)[C@H]3CC4)c12 [Example 119, (5aR,6S,9R)-12-(((3S,7aS)-3-(tert-butoxymethyl)tetrahydro-1H-pyrrolizin-7a(5H)-yl)methoxy)-2-(8-ethynyl-7-fluoronaphthalen-1-yl)-1-fluoro-4,5,5a,6,7,8,9,10-octahydro-3,10a,11,13,14-pentaaza-6,9-methanonaphtho[1,8-ab]heptalene] was tested. Which IC50 (GDP-loaded KRAS G12D) did it give?
A: 2.4 nM

Q: And the EC50 (GP2D (KRAS G12D) cells)?
A: 125 nM

Q: What about the EC50 (AsPC-1 (KRAS G12D) cells) of the same compound?
A: 390 nM

Q: C#Cc1c(F)c(F)cc2cc(O)cc(-c3nc4c5c(nc(OC[C@@]67CCCN6C[C@H](F)C7)nc5c3F)N3C[C@H]5CC[C@H](N5)[C@H]3CO4)c12 [Example 30, 5-ethynyl-6,7-difluoro-4-((5aS,6S,9R)-1-fluoro-12-(((2R,7aS)-2-fluorotetrahydro-1H-pyrrolizin-7a(5H)-yl)methoxy)-5a,6,7,8,9,10-hexahydro-5H-4-oxa-3,10a,11,13,14-pentaaza-6,9-methanonaphtho[1,8-ab]heptalen-2-yl)naphthalen-2-ol] was tested. Which IC50 (GDP-loaded KRAS G12D) did it give?
A: 0.2 nM

Q: And the EC50 (GP2D (KRAS G12D) cells)?
A: 11 nM

Q: What about the EC50 (AsPC-1 (KRAS G12D) cells) of the same compound?
A: 260 nM

Q: With C#Cc1c(F)ccc2cc(O)cc(-c3nc4c5c(nc(OCC6(CN7CCC8(CC7)CC8(F)F)CC6)nc5c3F)N3C[C@H]5CC[C@H](N5)[C@H]3CC4)c12 [Example 185, 4-((5aR,6S,9R)-12-((1-((1,1-difluoro-6-azaspiro[2.5]octan-6-yl)methyl)cyclopropyl)methoxy)-1-fluoro-4,5,5a,6,7,8,9,10-octahydro-3,10a,11,13,14-pentaaza[6,9]methanonaphtho[1,8-ab]heptalen-2-yl)-5-ethynyl-6-fluoronaphthalen-2-ol] as the compound, how does the IC50 (GDP-loaded KRAS G12D) read?
A: 0.4 nM

Q: What about the EC50 (GP2D (KRAS G12D) cells) of the same compound?
A: 2.7 nM

Q: What about the EC50 (AsPC-1 (KRAS G12D) cells) of the same compound?
A: 23.1 nM

Q: With Oc1cc(-c2nc3c4c(nc(OC[C@@]56CCCN5C[C@H](F)C6)nc4c2F)N2C[C@H]4CC[C@H](N4)[C@H]2CO3)c2c(F)c(F)ccc2c1 [Example 1, 5,6-difluoro-4-((5aS,6S,9R)-1-fluoro-12-(((2R,7aS)-2-fluorotetrahydro-1H-pyrrolizin-7a(5H)-yl)methoxy)-5a,6,7,8,9,10-hexahydro-5H-4-oxa-3,10a,11,13,14-pentaaza-6,9-methanonaphtho[1,8-ab]heptalen-2-yl)naphthalen-2-ol] as the compound, how does the IC50 (GDP-loaded KRAS G12D) read?
A: 0.5 nM

Q: And the EC50 (GP2D (KRAS G12D) cells)?
A: 19 nM

Q: What about the EC50 (AsPC-1 (KRAS G12D) cells) of the same compound?
A: 170 nM

Q: Which results are given for C#Cc1c(F)ccc2cccc(-c3nc4c5c(nc(OC[C@@]67CCCN6C[C@H](F)C7)nc5c3F)N3C[C@H]5CC[C@H](N5)[C@H]3CC[C@H]4C)c12 [Example 171, (4R,6aR,7S,10R)-2-(8-ethynyl-7-fluoronaphthalen-1-yl)-1-fluoro-13-(((2R,7aS)-2-fluorotetrahydro-1H-pyrrolizin-7a(5H)-yl)methoxy)-4-methyl-5,6,6a,7,8,9,10,11-octahydro-4H-3,11a,12,14,15-pentaaza-7,10-methanocyclohepta[4,5]cycloocta[1,2,3-de]naphthalene]?
A: IC50 (GDP-loaded KRAS G12D): < 0.1 nM; EC50 (GP2D (KRAS G12D) cells): 1.9 nM; EC50 (AsPC-1 (KRAS G12D) cells): 120 nM

Q: How did the IC50 (GDP-loaded KRAS G12D) turn out when C[C@H]1C[C@@H]2[C@@H]3CC[C@H](CN2c2nc(OC[C@@]45CCCN4C[C@H](F)C5)nc4c(F)c(-c5cc(O)cc6ccc(F)c(F)c56)nc1c24)N3 [Example 81, 5,6-difluoro-4-((4S,5aR,6S,9R)-1-fluoro-12-(((2R,7aS)-2-fluorotetrahydro-1H-pyrrolizin-7a(5H)-yl)methoxy)-4-methyl-4,5,5a,6,7,8,9,10-octahydro-3,10a,11,13,14-pentaaza-6,9-methanonaphtho[1,8-ab]heptalen-2-yl)naphthalen-2-ol] was run?
A: 0.2 nM

Q: What about the EC50 (GP2D (KRAS G12D) cells) of the same compound?
A: 2.8 nM

Q: And the EC50 (AsPC-1 (KRAS G12D) cells)?
A: 18 nM

Q: What does the source list for Oc1cc(-c2nc3c4c(nc(OC[C@@]56CCCN5C[C@H](F)C6)nc4c2F)N2C[C@H]4CC[C@H](N4)[C@H]2CO3)c2ccccc2c1 [Example 20, 4-((5aS,6S,9R)-1-fluoro-12-(((2R,7aS)-2-fluorotetrahydro-1H-pyrrolizin-7a(5H)-yl)methoxy)-5a,6,7,8,9,10-hexahydro-5H-4-oxa-3,10a,11,13,14-pentaaza-6,9-methanonaphtho[1,8-ab]heptalen-2-yl)naphthalen-2-ol]?
A: IC50 (GDP-loaded KRAS G12D): 7 nM; EC50 (GP2D (KRAS G12D) cells): 210 nM; EC50 (AsPC-1 (KRAS G12D) cells): > 1000 nM

Q: For C#Cc1c(F)ccc2cccc(-c3nc4c5c(nc(OC[C@@]67CCCN6C[C@H](F)C7)nc5c3F)N3C[C@H]5CC[C@H](N5)[C@H]3[C@H](C)O4)c12 [Example 116, (5S,5aS,6S,9R)-2-(8-ethynyl-7-fluoronaphthalen-1-yl)-1-fluoro-12-(((2R,7aS)-2-fluorotetrahydro-1H-pyrrolizin-7a(5H)-yl)methoxy)-5-methyl-5a,6,7,8,9,10-hexahydro-5H-4-oxa-3,10a,11,13,14-pentaaza-6,9-methanonaphtho[1,8-ab]heptalene], which IC50 (GDP-loaded KRAS G12D) is on record?
A: 0.6 nM

Q: What about the EC50 (GP2D (KRAS G12D) cells) of the same compound?
A: 6 nM

Q: What about the EC50 (AsPC-1 (KRAS G12D) cells) of the same compound?
A: 25 nM
